The values below come from ChEMBL document CHEMBL4828758, “Elucidation of Distinct Modular Assemblies of Smoothened Receptor by Bitopic Ligand Measurement” (J Med Chem, 2021).

Usually EC50 stands for the concentration that produces a half-maximal response. Broadly, the IC50 is the point on the concentration scale where inhibition reaches its midpoint.

Active and inactive are the calls of the source. No cut-off for these calls is given here. Some results are limits rather than exact numbers.

What all share (format): functional, cell-based
Assay [1] concerns the target Protein smoothened (Mus musculus) (UniProt P56726). The experiment in a line: (§1) Agonist activity at SMO in mouse NIH3T3 cells incubated for 2 hrs by Bright-Glo luciferase assay.
In assay [2] the target is T1, Protein smoothened (Mus musculus, UniProt P56726). The description is as §1.
Assay [3] addresses T1, Protein smoothened. Kind of assay: Antagonist activity at SMO in mouse NIH3T3 cells preincubated for 2 hrs followed by SAG stimulation and measured after 24 hrs by Bright-Glo luciferase assay.
Assay [4] deals with Protein smoothened (Mus musculus) (UniProt P56726). Kind of assay: Agonist activity at SMO in mouse NIH3T3 cells assessed as induction of SMO accumulation in primary cilia incubated for 12 hrs by AlexaFluor 488/ DAPI staining based immunofluorescence method.
Assay [5] has the same target. The experiment in a line: Agonist activity at SMO in mouse NIH3T3 cells assessed as induction of SMO accumulation in primary cilia incubated for 12 hrs by fluorescence method. The following applies: filed as agonist.
The target is the same in assay [6]. Kind of assay: Agonist activity at SMO in mouse NIH3T3 cells assessed as fluorescent intensity of ciliary SMO incubated for 12 hrs by fluorescence method. Particulars: filed as agonist.

T1 sequence (P56726 whole entry): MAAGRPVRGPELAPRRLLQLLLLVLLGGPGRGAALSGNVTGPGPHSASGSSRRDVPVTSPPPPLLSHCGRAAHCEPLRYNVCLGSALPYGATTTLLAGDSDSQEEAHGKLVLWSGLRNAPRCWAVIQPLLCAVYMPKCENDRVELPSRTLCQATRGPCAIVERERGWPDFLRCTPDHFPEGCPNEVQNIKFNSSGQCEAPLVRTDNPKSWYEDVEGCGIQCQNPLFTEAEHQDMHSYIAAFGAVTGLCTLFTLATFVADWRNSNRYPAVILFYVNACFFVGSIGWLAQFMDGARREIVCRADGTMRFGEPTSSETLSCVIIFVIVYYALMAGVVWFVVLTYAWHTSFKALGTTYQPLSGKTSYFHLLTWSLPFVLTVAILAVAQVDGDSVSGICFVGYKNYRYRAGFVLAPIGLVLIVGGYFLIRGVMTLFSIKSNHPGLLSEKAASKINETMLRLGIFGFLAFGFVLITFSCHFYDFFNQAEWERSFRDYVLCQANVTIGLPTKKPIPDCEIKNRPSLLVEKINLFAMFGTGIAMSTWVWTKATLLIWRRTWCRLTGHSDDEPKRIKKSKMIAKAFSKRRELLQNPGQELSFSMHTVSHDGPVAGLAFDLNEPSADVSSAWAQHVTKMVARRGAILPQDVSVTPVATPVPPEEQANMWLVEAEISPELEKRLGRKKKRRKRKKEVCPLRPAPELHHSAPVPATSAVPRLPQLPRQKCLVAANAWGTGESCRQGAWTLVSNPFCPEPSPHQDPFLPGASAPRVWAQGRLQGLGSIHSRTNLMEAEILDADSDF
Protein smoothened (Mus musculus), sequence (P56726 whole entry): as above

Consider `CN[C@H]1CC[C@H](N(Cc2cccc(-c3ccnc(OCCOCCOCCOCCn4cc(COCCOCCOCCOCCCCCC[C@](C)(O)C5CC[C@H]6[C@@H]7CC=C8C[C@@H](O)CC[C@]8(C)[C@H]7CC[C@]56C)nn4)c3)c2)C(=O)c2sc3ccccc3c2Cl)CC1` (stereo partly drawn), for which the outcome in assay [1] was inactive.
Regarding `CN[C@H]1CC[C@H](N(Cc2cccc(-c3ccnc(OCCOCCOCCOCCn4cc(COCCOCCOCCOCCOCCCCCC[C@](C)(O)C5CC[C@H]6[C@@H]7CC=C8C[C@@H](O)CC[C@]8(C)[C@H]7CC[C@]56C)nn4)c3)c2)C(=O)c2sc3ccccc3c2Cl)CC1` (stereo partly drawn), the outcome in assay [1] was inactive.
`CN[C@H]1CC[C@H](N(Cc2cccc(-c3ccnc(OC)c3)c2)C(=O)c2sc3ccccc3c2Cl)CC1` showed an EC50 on Protein smoothened [2] of 819 nM.
The compound `CC(O)(CCCCCCOCCOCc1cn(CCOCCOCCOCCO)nn1)C1CC[C@H]2[C@@H]3CC=C4C[C@@H](O)CC[C@]4(C)[C@H]3CC[C@]12C` (stereo partly drawn) returned an EC50 on Protein smoothened [2] of over 100000 nM.
Compound `CN[C@H]1CC[C@H](N(Cc2cccc(-c3ccnc(OCCOCCOCCOCCn4cc(COCCCCCC[C@](C)(O)C5CC[C@H]6[C@@H]7CC=C8C[C@@H](O)CC[C@]8(C)[C@H]7CC[C@]56C)nn4)c3)c2)C(=O)c2sc3ccccc3c2Cl)CC1` (stereo partly drawn) had an EC50 at Protein smoothened [2] of 8 nM.
The same measure, in the same setting: next, `CN[C@H]1CC[C@H](N(Cc2cccc(-c3ccnc(OCCOCCOCCn4cc(COCCCCCCC(C)(O)C5CC[C@H]6[C@@H]7CC=C8C[C@@H](O)CC[C@]8(C)[C@H]7CC[C@]56C)nn4)c3)c2)C(=O)c2sc3ccccc3c2Cl)CC1` (stereo partly drawn): 8 nM.
As for `CN[C@H]1CC[C@H](N(Cc2cccc(-c3ccnc(OCCOCCOCCOCCn4cc(COCCO)nn4)c3)c2)C(=O)c2sc3ccccc3c2Cl)CC1`, the EC50 on Protein smoothened [2] worked out at 966 nM.
The compound `CC(O)(CCCCCCOCCOCCOCc1cn(CCOCCOCCOCCOCCOCCS(=O)(=O)c2ccc(C(=O)Nc3ccc(Cl)c(-c4ccccn4)c3)c(Cl)c2)nn1)C1CC[C@H]2[C@@H]3CC=C4C[C@@H](O)CC[C@]4(C)[C@H]3CC[C@]12C` (stereo partly drawn) showed an IC50 at Protein smoothened [3] of 20 nM.
For `CN[C@H]1CC[C@H](N(Cc2cccc(-c3ccnc(OCCOCCOCCOCCn4cc(COCCOCCOCCOCCOCCOCCCCCC[C@](C)(O)C5CC[C@H]6[C@@H]7CC=C8C[C@@H](O)CC[C@]8(C)[C@H]7CC[C@]56C)nn4)c3)c2)C(=O)c2sc3ccccc3c2Cl)CC1` (stereo partly drawn), in assay [1], the result was inactive.
In the case of `CN[C@H]1CC[C@H](N(Cc2cccc(-c3ccnc(OCCOCCOCCOCCn4cc(COCCOCCOCC(=O)N5C[C@@H](C)C[C@H]6O[C@]7(CC[C@@H]8C(=C7C)C[C@H]7[C@H]8CC=C8C[C@@H](O)CC[C@@]87C)[C@H](C)[C@@H]65)nn4)c3)c2)C(=O)c2sc3ccccc3c2Cl)CC1`, the result in assay [4] (filed as agonist), in assay [5] and in assay [6] was Active.
With `CC1=C2C[C@H]3[C@@H](CC=C4C[C@@H](O)CC[C@@]43C)[C@@H]2CC[C@]12O[C@@H]1C[C@H](C)CN[C@H]1[C@H]2C`, the outcome in assay [5] and in assay [6] was Active.
For the compound `CC(O)(CCCCCCOCCOCc1cn(CCOCCOCCOCCS(=O)(=O)c2ccc(C(=O)Nc3ccc(Cl)c(-c4ccccn4)c3)c(Cl)c2)nn1)C1CC[C@H]2[C@@H]3CC=C4C[C@@H](O)CC[C@]4(C)[C@H]3CC[C@]12C` (stereo partly drawn), at Protein smoothened [3], the IC50 amounted to 20 nM.
Consider `CN[C@H]1CC[C@H](N(Cc2cccc(-c3ccnc(OCCOCCOCCOCCOCCOCCn4cc(COCCOCCOCCOCCOCCOCCOCCCCCCC(C)(O)C5CC[C@H]6[C@@H]7CC=C8C[C@@H](O)CC[C@]8(C)[C@H]7CC[C@]56C)nn4)c3)c2)C(=O)c2sc3ccccc3c2Cl)CC1` (stereo partly drawn), for which, in assay [1], the outcome was inactive.
On the same count and under the same terms, under `CN[C@H]1CC[C@H](N(Cc2cccc(-c3ccnc(OCCOCCOCCOCCn4cc(COCCOCCOCCOCCOCCOCCOCCCCCC[C@](C)(O)C5CC[C@H]6[C@@H]7CC=C8C[C@@H](O)CC[C@]8(C)[C@H]7CC[C@]56C)nn4)c3)c2)C(=O)c2sc3ccccc3c2Cl)CC1` (stereo partly drawn) stands “inactive”.
`C[C@H](CCCCCCOCCOCc1cn(CCOCCOCCOCCOCCOCCS(=O)(=O)c2ccc(C(=O)Nc3ccc(Cl)c(-c4ccccn4)c3)c(Cl)c2)nn1)C1CC[C@H]2[C@@H]3CC=C4C[C@@H](O)CC[C@]4(C)[C@H]3CC[C@]12C` (stereo partly drawn): the result in assay [4] was inactive.
On to `[N-]=[N+]=NCCOCCOCCOCCOCCOCCS(=O)(=O)c1ccc(C(=O)Nc2ccc(Cl)c(-c3ccccn3)c2)c(Cl)c1`, for which, on Protein smoothened [3], the IC50 worked out at 3000 nM.
Turning to `CC(O)(CCCCCCOCCOCCOCCOCCOCc1cn(CCOCCOCCOCCOCCOCCS(=O)(=O)c2ccc(C(=O)Nc3ccc(Cl)c(-c4ccccn4)c3)c(Cl)c2)nn1)C1CC[C@H]2[C@@H]3CC=C4C[C@@H](O)CC[C@]4(C)[C@H]3CC[C@]12C` (stereo partly drawn), half-maximal inhibition against Protein smoothened [3] (IC50) required 20 nM.
With `CN[C@H]1CC[C@H](N(Cc2cccc(-c3ccnc(OCCOCCOCCOCCOCCOCCn4cc(COCCOCCOCCOCCOCCOCCOCCOCCCCCC[C@@H](C)C5CC[C@H]6[C@@H]7CC=C8C[C@@H](O)CC[C@]8(C)[C@H]7CC[C@]56C)nn4)c3)c2)C(=O)c2sc3ccccc3c2Cl)CC1` (stereo partly drawn), the EC50 at Protein smoothened [2] amounted to 200 nM.
Still for that read-out and setting: under `CN[C@H]1CC[C@H](N(Cc2cccc(-c3ccnc(OCCOCCOCCOCCn4cc(COCCOCCOCCOCCOCCOCCOCCCCCC[C@@H](C)C5CC[C@H]6[C@@H]7CC=C8C[C@@H](O)CC[C@]8(C)[C@H]7CC[C@]56C)nn4)c3)c2)C(=O)c2sc3ccccc3c2Cl)CC1` (stereo partly drawn) stands 200 nM; under `CN[C@H]1CC[C@H](N(Cc2cccc(-c3ccnc(OCCOCCOCCOCCn4cc(COCCOCCOCCCCCC[C@](C)(O)C5CC[C@H]6[C@@H]7CC=C8C[C@@H](O)CC[C@]8(C)[C@H]7CC[C@]56C)nn4)c3)c2)C(=O)c2sc3ccccc3c2Cl)CC1` (stereo partly drawn), 8 nM.
The same measure, in the same setting: next, `CN[C@H]1CC[C@H](N(Cc2cccc(-c3ccnc(OCCOCCOCCOCCOCCOCCn4cc(COCCOCCOCCOCCOCCOCCOCCCCCC[C@@H](C)C5CC[C@H]6[C@@H]7CC=C8C[C@@H](O)CC[C@]8(C)[C@H]7CC[C@]56C)nn4)c3)c2)C(=O)c2sc3ccccc3c2Cl)CC1` (stereo partly drawn): 200 nM.
Turning to `CC(O)(CCCCCCOCCOCc1cn(CCOCCOCCOCCOCCOCCS(=O)(=O)c2ccc(C(=O)Nc3ccc(Cl)c(-c4ccccn4)c3)c(Cl)c2)nn1)C1CC[C@H]2[C@@H]3CC=C4C[C@@H](O)CC[C@]4(C)[C@H]3CC[C@]12C` (stereo partly drawn), the result in assay [4] and in assay [1] was inactive. In addition, on Protein smoothened [3], inhibition was half-maximal at 20 nM (IC50).
With `CN[C@H]1CC[C@H](N(Cc2cccc(-c3ccnc(OCCOCCOCCOCCOCCOCCn4cc(COCCOCCOCCOCCOCCOCCOCCOCCOCCCCCC[C@@H](C)C5CC[C@H]6[C@@H]7CC=C8C[C@@H](O)CC[C@]8(C)[C@H]7CC[C@]56C)nn4)c3)c2)C(=O)c2sc3ccccc3c2Cl)CC1` (stereo partly drawn), a half-maximal effect on Protein smoothened [2] (EC50) was put at 200 nM.
Regarding `CN[C@H]1CC[C@H](N(Cc2cccc(-c3ccncc3)c2)C(=O)c2sc3ccccc3c2Cl)CC1`, the outcome in assay [5] and in assay [6] was Active. The compound also showed an EC50 on Protein smoothened [2] of 16.9 nM.
For `CN[C@H]1CC[C@H](N(Cc2cccc(-c3ccnc(OCCOCCn4cc(COCCCCCC[C@](C)(O)[C@H]5CC[C@H]6[C@@H]7CC=C8C[C@@H](O)CC[C@]8(C)[C@H]7CC[C@@]65C)nn4)c3)c2)C(=O)c2sc3ccccc3c2Cl)CC1`, in assay [1], the outcome was inactive.
On to `CC(O)(CCCCCCOCCOCc1cn(CCOCCOCCOCCOCCS(=O)(=O)c2ccc(C(=O)Nc3ccc(Cl)c(-c4ccccn4)c3)c(Cl)c2)nn1)C1CC[C@H]2[C@@H]3CC=C4C[C@@H](O)CC[C@]4(C)[C@H]3CC[C@]12C` (stereo partly drawn), for which, at Protein smoothened [3], the IC50 worked out at 20 nM.
For `CN[C@H]1CC[C@H](N(Cc2cccc(-c3ccnc(OCCn4cc(COCCCCCCC[C@](C)(O)[C@H]5CC[C@H]6[C@@H]7CC=C8C[C@@H](O)CC[C@]8(C)[C@H]7CC[C@@]65C)nn4)c3)c2)C(=O)c2sc3ccccc3c2Cl)CC1`, the outcome in assay [1] was inactive.
For `CN[C@H]1CC[C@H](N(Cc2cccc(-c3ccnc(OCCOCCOCCOCCn4cc(COCCOCCC#CCCC(C)(O)C5CC[C@H]6[C@@H]7CC=C8C[C@@H](O)CC[C@]8(C)[C@H]7CC[C@]56C)nn4)c3)c2)C(=O)c2sc3ccccc3c2Cl)CC1` (stereo partly drawn), the outcome in assay [4] (filed as agonist), in assay [5] and in assay [6] was Active.
For `CN[C@H]1CC[C@H](N(Cc2cccc(-c3ccnc(OCCOCCOCCOCCOCCn4cc(COCCOCCOCCOCCOCCOCCOCCCCCCC(C)(O)C5CC[C@H]6[C@@H]7CC=C8C[C@@H](O)CC[C@]8(C)[C@H]7CC[C@]56C)nn4)c3)c2)C(=O)c2sc3ccccc3c2Cl)CC1` (stereo partly drawn), the result in assay [1] was inactive.
In turn, `CC(O)(CCCCCCOCCOCc1cn(CCOCCOCCS(=O)(=O)c2ccc(C(=O)Nc3ccc(Cl)c(-c4ccccn4)c3)c(Cl)c2)nn1)C1CC[C@H]2[C@@H]3CC=C4C[C@@H](O)CC[C@]4(C)[C@H]3CC[C@]12C` (stereo partly drawn) had an IC50 against Protein smoothened [3] of 20 nM.
In turn, `CN[C@H]1CC[C@H](N(Cc2cccc(-c3ccnc(OCCOCCOCCOCCn4cc(COCCOCCOCCOCCCCCC[C@@H](C)C5CC[C@H]6[C@@H]7CC=C8C[C@@H](O)CC[C@]8(C)[C@H]7CC[C@]56C)nn4)c3)c2)C(=O)c2sc3ccccc3c2Cl)CC1` (stereo partly drawn) came in with an EC50 at Protein smoothened [2] of 200 nM.
Still for that read-out and setting: under `CC(O)(CCCCCCO)C1CC[C@H]2[C@@H]3CC=C4C[C@@H](O)CC[C@]4(C)[C@H]3CC[C@]12C` (stereo partly drawn) stands over 100000 nM.
As to `CC(O)(CCCCCCOCCOCCOCCOCCOCCOCCOCc1cn(CCOCCOCCOCCOCCOCCS(=O)(=O)c2ccc(C(=O)Nc3ccc(Cl)c(-c4ccccn4)c3)c(Cl)c2)nn1)C1CC[C@H]2[C@@H]3CC=C4C[C@@H](O)CC[C@]4(C)[C@H]3CC[C@]12C` (stereo partly drawn), at Protein smoothened [3], the IC50 worked out at 20 nM.
For `CC(O)(CCCCCCOCCOCCOCCOCCOCCOCCOCCOCCOCc1cn(CCOCCOCCOCCOCCOCCS(=O)(=O)c2ccc(C(=O)Nc3ccc(Cl)c(-c4ccccn4)c3)c(Cl)c2)nn1)C1CC[C@H]2[C@@H]3CC=C4C[C@@H](O)CC[C@]4(C)[C@H]3CC[C@]12C` (stereo partly drawn), it took 20 nM to reach half-maximal inhibition against Protein smoothened [3] (IC50).
